Test results as given in patent publication US7943616B2, “Azaindoles for inhibiting aurora2 and other kinases” (Aventis Pharmaceuticals Inc., priority 2001, dated 2011).

melting point [°C] | SMILES
215 to 216 | CC(C)(C)c1ccc(-c2[nH]c3nccnc3c2CCC#N)cc1 [Example 23]
187 to 189 | CC(C)(C)c1ccc(-c2[nH]c3nccnc3c2CCCO)cc1 [Example 26, 3-[6-(4-tert-Butyl-phenyl)-5H-pyrrolo[2,3-b]pyrazin-7-yl]-propan-1-ol]
183 to 184 | CCOC(=O)COc1cc(-c2cc3nccnc3[nH]2)ccc1OC [Example 27, [2-Methoxy-5-(5H-pyrrolo[2,3-b]pyrazin-6-yl)-phenoxy]acetic Acid Ethyl Ester]
289 to 290 | Cn1cc(-c2cc3nccnc3[nH]2)c2cc(O)ccc21 [Example 7, 1-methyl-3-(5H-pyrrolo[2,3-b]pyrazin-6-yl)-1H-indol-5-ol]

More lines, now with the values behind:

SMILES | melting point [°C]
c1cncc(OCCCn2cc(-c3cc4nccnc4[nH]3)c3ccccc32)c1 [Example 6, 6-{1-[3-(Pyridin-3-yloxy)-propyl]-1H-indol-3-yl}-5H-pyrrolo[2,3-b]pyrazine] | 208 to 209
Cn1cc(-c2cc3cccnc3[nH]2)c2cc(N)ccc21 [Example 18, 1-Methyl-3-(1H-pyrrolo[2,3-b]pyridin-2-yl)-1H-indol-5-ylamine] | 247 to 248
COc1ccc2[nH]cc(-c3cc4c(C(N)=O)ccnc4[nH]3)c2c1 [Example 42, 2-(5-Methoxy-1H-indol-3-yl)-1H-pyrrolo[2,3-b]pyridine-4 Carboxamide] | > 320
COc1ccc2[nH]cc(-c3cc4nccnc4[nH]3)c2c1 [Example 11, 6-(5-methoxy-1H-indol-3-yl)-5H-pyrrolo[2,3-b]pyrazine] | 268 to 271
